{"source": "patent US11459570B2", "about": "“Transgenic mouse expressing amyloid precursor protein that has olfactory neuron degeneration” (The General Hospital Corporation, priority 2014, dated 2022)", "key": {"OSNs": {"tested_on": "OSNs", "conditions": "mice, intranasal instillation; cited from earlier work"}, "MDA5 and PKR": {"tested_on": "MDA5 and PKR", "assay": "Western blots of type I interferon-stimulated genes in differentiated ReNVM cells after PolyIC transfection", "type": "cell-based, human", "conditions": "western blot, 24 hour post transfection with PolyIC", "experimental": "(§1) FIGS. 12A-G. dsRNA induces a Type I interferon response and is sufficient to induced neurodegeneration in human neurons. A-E) Representative transmitted light images of differentiated ReNVM neurons transfected with increasing doses of PolyIC, a dsRNA mimetic, showing a dose-dependent loss of neurons after 48 hours.\n(§2) Cytoplasmic dsRNA is sensed by three different proteins, PKR, MDA5, and RIG-I, that are components of the innate immune system. Engagement of each protein by dsRNA induces interferon signaling and neurodegeneration. […] To determine if cytoplasmic dsRNA was sufficient to mediate neurodegeneration in a human neurons, we transfected neuronal differentiated ReNcell VM cells, a human neural cell line derived from ventral mesencephalon, with escalating doses of poly IC (which mimics a GC dinucleotide repeat)."}, "cortical neurons": {"tested_on": "cortical neurons", "conditions": "rats; cited from earlier work"}, "[1]": {"tested_on": "neuronal differentiated ReNcell VM cells", "assay": "Viability of differentiated ReNcell VM neurons transfected with poly IC (Celltiter-Glo)", "type": "cell-based, human", "conditions": "escalating doses of poly IC, after 2 days (48 hours) in culture", "experimental": "as §1, §2"}}, "data": [{"substance": "polyinosinic-polycytidylic acid [poly IC]", "values": [{"measurement": "degeneration of OSNs", "setting": "OSNs", "result": "causes degeneration"}, {"measurement": "protein expression of type I interferon-stimulated genes (MDA5, PKR)", "setting": "MDA5 and PKR", "result": "massive induction of MDA5 and PKR"}, {"measurement": "protein expression of type I interferon-stimulated genes (MDA5, PKR)", "setting": "MDA5 and PKR; listed as PolyIC", "result": "elevated protein expression of type I interferon-stimulated genes"}, {"measurement": "degeneration of cortical neurons", "setting": "cortical neurons", "result": "causes degeneration"}, {"measurement": "viability of ReNVM neurons relative to mock-transfected neurons", "setting": "[1]", "result": "dose-dependent reduction in their viability"}, {"measurement": "viability of ReNVM neurons relative to mock-transfected neurons", "setting": "[1]; listed as PolyIC", "result": "dose-dependent loss in cell viability"}]}]}
